Key:
[1] = Toxicity in anti-CD40 induced immunodeficient Rag1 KO colitis mouse model assessed as body weight loss at 10 to 30 mg/kg, po bid administered for 6 days; format: organism-based; conditions: in vivo, 144 h, dose 10-30 mg/kg, time 6 day
[2] = molecular target: Non-receptor tyrosine-protein kinase TYK2 (Homo sapiens, UniProt P29597); assay: Inhibition of TYK2 dependent IFNalpha-stimulated STAT3 phosphorylation in human Jurkat cells; format: cell-based
[3] = Stability in human liver microsomes assessed as parent compound remaining measured after 60 mins; format: ADME, Microsome; conditions: read-out: Stability
[4] = Stability in mouse liver microsomes assessed as parent compound remaining measured after 60 mins; format: ADME, Microsome; conditions: read-out: Stability
[5] = molecular target: Tyrosine-protein kinase JAK2 (Homo sapiens, UniProt O60674); assay: Inhibition of JAK2 dependent GM-CSF stimulated STAT3 phosphorylation in human TF-1 cells; format: cell-based
JAK3/JAK1 = JAK3/JAK1 (Homo sapiens, UniProt P23458+P52333); assay: Inhibition of JAK1/3 dependent IL-2 stimulated STAT5 phosphorylation in CD3-positive T cells (unknown origin); format: cell-based, CD3-positive T cell
[6] = Tmax in mouse at 30 mg/kg, IG; format: ADME, organism-based; conditions: in vivo, po
[7] = C0 in mouse at 1 mg/kg, iv; format: ADME, organism-based; conditions: in vivo
[8] = Cmax in mouse at 30 mg/kg, IG; format: ADME, organism-based; design: dose 30 mg/kg, route ig; conditions: in vivo, po
[9] = Volume of distribution in mouse at 1 mg/kg, iv; format: ADME, organism-based; conditions: in vivo
[10] = AUC(0 to infinity) in mouse at 30 mg/kg, IG; format: ADME, organism-based; design: dose 30 mg/kg, route ig; conditions: in vivo, po
[11] = AUC(0 to infinity) in mouse at 1 mg/kg, iv; format: ADME, organism-based; design: dose 1 mg/kg, route iv; conditions: in vivo
[12] = Clearance in mouse at 1 mg/kg, iv; format: ADME, organism-based; conditions: in vivo
[13] = Half life in mouse at 30 mg/kg, IG; format: ADME, organism-based; conditions: in vivo, po
[14] = Half life in mouse at 1 mg/kg, iv; format: ADME, organism-based; conditions: in vivo
[15] = MRT (0 to t) in mouse at 30 mg/kg, IG; format: ADME, organism-based; conditions: in vivo, po
[16] = MRT (0 to t) in mouse at 1 mg/kg, iv; format: ADME, organism-based; conditions: in vivo
[17] = Bioavailability in mouse at 30 mg/kg, IG; format: ADME, organism-based; conditions: in vivo, po
hERG (KCNH2) = hERG (KCNH2) (Homo sapiens, UniProt Q12809); assay: Inhibition of human ERG at 10 uM by patch clamp method relative to control; format: toxicity
CYP1A2 = molecular target: T1, CYP1A2 (Homo sapiens, UniProt P05177); assay: Inhibition of CYP1A2 (unknown origin) at 1 uM relative to control; format: ADME
T1 sequence (P05177 whole entry): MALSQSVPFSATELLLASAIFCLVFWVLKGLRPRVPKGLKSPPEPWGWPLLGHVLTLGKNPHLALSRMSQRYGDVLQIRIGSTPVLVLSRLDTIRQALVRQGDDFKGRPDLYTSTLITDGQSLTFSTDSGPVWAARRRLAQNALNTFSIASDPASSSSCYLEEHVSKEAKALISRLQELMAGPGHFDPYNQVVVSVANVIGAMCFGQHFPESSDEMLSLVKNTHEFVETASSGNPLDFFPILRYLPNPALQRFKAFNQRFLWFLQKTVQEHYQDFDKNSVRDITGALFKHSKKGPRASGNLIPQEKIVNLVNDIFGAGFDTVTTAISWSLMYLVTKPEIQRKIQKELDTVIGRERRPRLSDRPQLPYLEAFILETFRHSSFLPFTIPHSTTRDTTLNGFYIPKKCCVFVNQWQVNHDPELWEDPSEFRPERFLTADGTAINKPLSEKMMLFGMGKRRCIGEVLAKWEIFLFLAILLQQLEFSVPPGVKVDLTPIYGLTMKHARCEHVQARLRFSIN

CYP2B6 = molecular target: T2, CYP2B6 (Homo sapiens, UniProt P20813); assay: Inhibition of CYP2B6 (unknown origin) at 1 uM relative to control; format: ADME
T2 sequence (P20813 whole entry): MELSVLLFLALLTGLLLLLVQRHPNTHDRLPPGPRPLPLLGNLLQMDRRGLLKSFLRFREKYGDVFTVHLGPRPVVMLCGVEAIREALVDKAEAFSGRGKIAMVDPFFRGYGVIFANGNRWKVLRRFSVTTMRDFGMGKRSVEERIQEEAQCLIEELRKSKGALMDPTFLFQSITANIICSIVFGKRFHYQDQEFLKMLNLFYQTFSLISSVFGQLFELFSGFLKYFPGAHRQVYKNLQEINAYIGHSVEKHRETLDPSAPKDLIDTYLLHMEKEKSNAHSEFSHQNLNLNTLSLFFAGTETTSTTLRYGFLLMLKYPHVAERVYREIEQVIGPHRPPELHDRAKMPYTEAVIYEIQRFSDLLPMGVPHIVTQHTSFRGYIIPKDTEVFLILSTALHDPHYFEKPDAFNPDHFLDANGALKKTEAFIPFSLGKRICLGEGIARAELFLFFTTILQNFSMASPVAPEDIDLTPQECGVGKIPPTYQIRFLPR

CYP2C9 = CYP2C9 (Homo sapiens, UniProt P11712); assay: Inhibition of CYP2C9 (unknown origin) at 1 uM relative to control; format: ADME
CYP2C19 = CYP2C19 (Homo sapiens, UniProt P33261); assay: Inhibition of CYP2C19 (unknown origin) at 1 uM relative to control; format: ADME
CYP2D6 = CYP2D6 (Homo sapiens, UniProt P10635); assay: Inhibition of CYP2D6 (unknown origin) at 1 uM relative to control; format: ADME
CYP3A4 = CYP3A4 (Homo sapiens, UniProt P08684); assay: Inhibition of CYP3A4 (unknown origin) at 1 uM relative to control; format: ADME
[18] = Plasma protein binding in anti-CD40 induced immunodeficient Rag1 KO colitis mouse model; format: ADME, cell-free; conditions: read-out: PPB (converted)

Sequence of CYP2C9 (P11712 whole entry): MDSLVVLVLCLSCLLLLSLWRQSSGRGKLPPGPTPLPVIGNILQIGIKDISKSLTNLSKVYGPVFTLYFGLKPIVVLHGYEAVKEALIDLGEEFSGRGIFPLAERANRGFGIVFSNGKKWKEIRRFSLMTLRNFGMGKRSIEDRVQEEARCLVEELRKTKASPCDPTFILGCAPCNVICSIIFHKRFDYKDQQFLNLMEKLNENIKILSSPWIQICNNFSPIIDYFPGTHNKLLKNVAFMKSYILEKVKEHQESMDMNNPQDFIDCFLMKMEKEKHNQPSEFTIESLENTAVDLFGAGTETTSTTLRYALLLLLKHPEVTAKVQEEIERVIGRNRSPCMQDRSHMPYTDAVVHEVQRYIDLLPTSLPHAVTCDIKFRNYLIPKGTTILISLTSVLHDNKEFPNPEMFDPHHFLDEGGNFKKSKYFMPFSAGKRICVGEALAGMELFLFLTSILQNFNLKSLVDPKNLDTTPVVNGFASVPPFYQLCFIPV
Sequence of hERG (KCNH2) (Q12809 whole entry): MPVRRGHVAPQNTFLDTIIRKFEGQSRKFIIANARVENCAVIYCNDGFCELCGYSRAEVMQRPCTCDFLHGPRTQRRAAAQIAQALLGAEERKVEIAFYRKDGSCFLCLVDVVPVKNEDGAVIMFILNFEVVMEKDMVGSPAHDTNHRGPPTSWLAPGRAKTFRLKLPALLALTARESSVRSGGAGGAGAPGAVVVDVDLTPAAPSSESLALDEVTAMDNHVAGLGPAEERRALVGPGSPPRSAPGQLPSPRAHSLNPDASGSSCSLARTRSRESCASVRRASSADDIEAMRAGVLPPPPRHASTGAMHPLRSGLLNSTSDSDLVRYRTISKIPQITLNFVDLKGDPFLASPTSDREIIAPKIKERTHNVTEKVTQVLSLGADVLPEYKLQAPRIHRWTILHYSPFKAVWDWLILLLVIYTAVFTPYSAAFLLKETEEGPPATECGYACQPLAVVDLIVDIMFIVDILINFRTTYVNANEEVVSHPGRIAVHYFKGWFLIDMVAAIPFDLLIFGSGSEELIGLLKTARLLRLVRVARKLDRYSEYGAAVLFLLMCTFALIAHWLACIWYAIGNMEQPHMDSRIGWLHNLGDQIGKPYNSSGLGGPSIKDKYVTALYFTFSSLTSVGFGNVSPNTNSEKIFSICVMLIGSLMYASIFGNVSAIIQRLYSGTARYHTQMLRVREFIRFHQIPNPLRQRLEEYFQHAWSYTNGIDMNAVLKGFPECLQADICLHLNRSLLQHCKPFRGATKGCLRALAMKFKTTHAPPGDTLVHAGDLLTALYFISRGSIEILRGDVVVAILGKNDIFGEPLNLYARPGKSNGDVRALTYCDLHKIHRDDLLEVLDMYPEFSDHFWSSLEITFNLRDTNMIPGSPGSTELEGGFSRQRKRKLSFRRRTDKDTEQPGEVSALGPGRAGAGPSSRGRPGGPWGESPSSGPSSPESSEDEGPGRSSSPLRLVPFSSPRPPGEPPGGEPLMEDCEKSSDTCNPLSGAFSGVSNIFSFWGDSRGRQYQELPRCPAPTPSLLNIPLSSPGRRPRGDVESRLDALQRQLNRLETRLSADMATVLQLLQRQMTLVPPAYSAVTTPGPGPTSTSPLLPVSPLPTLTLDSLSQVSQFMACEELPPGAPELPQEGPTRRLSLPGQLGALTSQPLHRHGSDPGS
Sequence of CYP2D6 (P10635 whole entry): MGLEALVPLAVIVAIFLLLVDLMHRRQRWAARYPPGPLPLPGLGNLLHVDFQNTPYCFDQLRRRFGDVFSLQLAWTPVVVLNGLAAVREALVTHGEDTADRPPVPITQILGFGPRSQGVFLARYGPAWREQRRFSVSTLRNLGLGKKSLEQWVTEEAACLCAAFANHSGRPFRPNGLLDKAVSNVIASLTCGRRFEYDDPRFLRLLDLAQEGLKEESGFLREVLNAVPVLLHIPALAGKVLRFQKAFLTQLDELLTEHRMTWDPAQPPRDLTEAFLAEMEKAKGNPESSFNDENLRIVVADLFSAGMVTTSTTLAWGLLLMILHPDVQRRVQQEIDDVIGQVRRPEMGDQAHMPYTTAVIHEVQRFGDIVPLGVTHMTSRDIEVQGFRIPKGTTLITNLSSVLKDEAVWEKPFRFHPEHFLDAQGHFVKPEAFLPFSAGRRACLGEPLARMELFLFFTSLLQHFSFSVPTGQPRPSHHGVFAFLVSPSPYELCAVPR
Sequence of JAK3/JAK1 (P52333 whole entry): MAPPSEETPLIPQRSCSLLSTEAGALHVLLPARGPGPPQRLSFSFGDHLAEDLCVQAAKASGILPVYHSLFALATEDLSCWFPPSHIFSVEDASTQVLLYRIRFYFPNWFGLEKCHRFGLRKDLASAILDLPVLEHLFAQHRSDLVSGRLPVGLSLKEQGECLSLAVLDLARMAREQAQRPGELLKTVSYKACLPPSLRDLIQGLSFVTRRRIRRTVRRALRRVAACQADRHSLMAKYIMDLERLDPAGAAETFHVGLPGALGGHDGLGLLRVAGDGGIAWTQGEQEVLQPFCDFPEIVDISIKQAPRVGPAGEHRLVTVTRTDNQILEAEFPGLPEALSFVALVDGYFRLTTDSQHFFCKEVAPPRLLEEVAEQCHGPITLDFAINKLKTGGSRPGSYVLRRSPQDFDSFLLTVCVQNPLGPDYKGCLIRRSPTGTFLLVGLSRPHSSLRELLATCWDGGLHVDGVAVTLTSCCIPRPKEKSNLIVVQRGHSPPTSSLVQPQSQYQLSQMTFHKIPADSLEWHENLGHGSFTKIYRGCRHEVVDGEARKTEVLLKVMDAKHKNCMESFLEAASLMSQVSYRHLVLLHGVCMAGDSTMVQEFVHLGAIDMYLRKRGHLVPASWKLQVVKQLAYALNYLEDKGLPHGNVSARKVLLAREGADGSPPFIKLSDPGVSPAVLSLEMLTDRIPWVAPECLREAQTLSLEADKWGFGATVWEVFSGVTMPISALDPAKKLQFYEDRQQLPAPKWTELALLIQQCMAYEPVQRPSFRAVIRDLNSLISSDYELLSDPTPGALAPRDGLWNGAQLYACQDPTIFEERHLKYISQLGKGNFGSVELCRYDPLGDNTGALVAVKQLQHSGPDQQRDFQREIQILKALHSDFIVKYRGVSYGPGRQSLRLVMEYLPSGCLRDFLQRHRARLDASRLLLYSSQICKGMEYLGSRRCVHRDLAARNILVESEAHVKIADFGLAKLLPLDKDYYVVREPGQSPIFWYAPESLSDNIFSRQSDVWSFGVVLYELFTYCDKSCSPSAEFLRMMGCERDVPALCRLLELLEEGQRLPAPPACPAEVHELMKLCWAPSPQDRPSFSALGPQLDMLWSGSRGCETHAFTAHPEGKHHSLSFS
Sequence of JAK3/JAK1 (P23458 whole entry): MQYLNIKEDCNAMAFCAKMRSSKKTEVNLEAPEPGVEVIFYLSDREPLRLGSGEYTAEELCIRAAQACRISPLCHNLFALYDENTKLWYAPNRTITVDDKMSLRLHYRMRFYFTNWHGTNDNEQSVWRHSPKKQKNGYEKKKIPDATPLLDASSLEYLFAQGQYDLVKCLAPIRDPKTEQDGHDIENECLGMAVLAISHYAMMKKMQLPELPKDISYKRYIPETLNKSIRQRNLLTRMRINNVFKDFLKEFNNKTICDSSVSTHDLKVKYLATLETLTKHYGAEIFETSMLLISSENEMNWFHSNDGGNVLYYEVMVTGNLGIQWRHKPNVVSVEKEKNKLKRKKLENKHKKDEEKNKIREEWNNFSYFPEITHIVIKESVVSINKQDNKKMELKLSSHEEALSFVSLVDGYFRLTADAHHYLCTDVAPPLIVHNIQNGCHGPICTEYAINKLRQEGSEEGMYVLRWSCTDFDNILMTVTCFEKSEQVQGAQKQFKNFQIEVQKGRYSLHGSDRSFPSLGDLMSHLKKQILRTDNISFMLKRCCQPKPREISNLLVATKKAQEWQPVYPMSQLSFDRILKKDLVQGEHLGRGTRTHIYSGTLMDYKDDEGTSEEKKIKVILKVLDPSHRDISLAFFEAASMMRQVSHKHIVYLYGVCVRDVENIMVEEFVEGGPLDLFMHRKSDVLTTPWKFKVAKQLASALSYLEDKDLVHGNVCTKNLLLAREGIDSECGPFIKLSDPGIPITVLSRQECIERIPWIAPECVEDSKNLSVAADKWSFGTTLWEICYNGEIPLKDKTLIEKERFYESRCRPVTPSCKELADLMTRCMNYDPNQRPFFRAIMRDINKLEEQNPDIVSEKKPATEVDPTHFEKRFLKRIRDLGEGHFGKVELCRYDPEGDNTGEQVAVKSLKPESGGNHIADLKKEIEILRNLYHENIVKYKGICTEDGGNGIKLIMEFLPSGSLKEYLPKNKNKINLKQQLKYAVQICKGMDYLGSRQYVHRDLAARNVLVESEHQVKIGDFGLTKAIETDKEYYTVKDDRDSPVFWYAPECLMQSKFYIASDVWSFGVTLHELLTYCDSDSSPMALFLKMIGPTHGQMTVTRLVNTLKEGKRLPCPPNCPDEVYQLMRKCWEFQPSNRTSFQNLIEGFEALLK
Sequence of CYP3A4 (P08684 whole entry): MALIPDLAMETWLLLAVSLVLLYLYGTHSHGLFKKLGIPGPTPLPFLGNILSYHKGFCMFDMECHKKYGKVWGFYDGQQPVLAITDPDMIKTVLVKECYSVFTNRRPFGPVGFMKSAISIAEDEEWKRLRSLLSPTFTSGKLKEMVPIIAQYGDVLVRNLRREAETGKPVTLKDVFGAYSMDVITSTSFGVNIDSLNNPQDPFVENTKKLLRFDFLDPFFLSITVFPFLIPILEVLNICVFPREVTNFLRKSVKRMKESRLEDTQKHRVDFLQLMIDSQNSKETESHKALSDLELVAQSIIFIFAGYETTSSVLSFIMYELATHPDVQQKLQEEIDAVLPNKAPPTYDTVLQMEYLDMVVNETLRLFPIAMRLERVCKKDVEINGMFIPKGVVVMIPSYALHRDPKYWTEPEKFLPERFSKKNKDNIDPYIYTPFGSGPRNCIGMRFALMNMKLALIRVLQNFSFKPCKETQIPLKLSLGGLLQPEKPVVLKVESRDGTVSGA

## [2H]C([2H])([2H])NC(=O)c1nnc(NC(=O)C2CC2)cc1Nc1cccc(C(=O)Nc2ccc(-c3ncn(C4CC4)n3)cc2)c1OC
[1]
  Activity: Non-Toxic
[2]
  IC50: 4.8 nM
[3]
  remaining at 1 h: 106%
[4]
  remaining at 1 h: 93.3%
[5]
  IC50: 2670 nM
JAK3/JAK1
  IC50: 972 nM
[6]
  Tmax: 4 h
[7]
  C0: 702 ng/mL
[8]
  Cmax: 7100 ng/mL
[9]
  Vd: 1.29 L/kg
[10]
  AUC: 171069 ng·h/mL
[11]
  AUC: 1694 ng·h/mL
[12]
  clearance: 9.83 mL/min/kg
[13]
  half-life: 14.7 h
[14]
  half-life: 1.52 h
[15]
  MRT last: 5.21 h
[16]
  MRT last: 2.12 h
[17]
  F: 118.87%
hERG (KCNH2)
  inhibition at 10 µM: 27.8%
CYP1A2
  inhibition at 1 µM: 1.18%
CYP2B6
  inhibition at 1 µM: 16.9%
CYP2C9
  inhibition at 1 µM: 7%
CYP2C19
  inhibition at 1 µM: -5.42%
CYP2D6
  inhibition at 1 µM: -9%
CYP3A4
  inhibition at 1 µM: 5.25%
[18]
  fraction unbound: 0.0022
